{"source": "patent US20150148234A1", "about": "“HERBICIDE-RESISTANT SUNFLOWER PLANTS WITH MULTIPLE HERBICIDE RESISTANT ALLELES OF AHASL1 AND METHODS OF USE” (NIDERA S.A., priority 2013, published 2015)", "key": {"[1]": {"test_system": "AHAS enzyme of A205V homozygous (B7imi, IMISUN1)", "assay": "AHAS enzyme activity assay, Set 2", "type": "biochemical, sunflower", "conditions": "Set 2 (FIG. 14)", "experimental": "(§1) Twelve greenhouse grown sunflower plants from each of the lines depicted in Table 21 were bulked and subjected to an AHAS enzyme activity assay via the method of Singh et al. (1988) Anal. Biochem. 171:173-179. Each activity assay was repeated twice. Due to the large number of samples, the experiment was split into two sets (Table 21).\n(§2) Young, actively growing leaves, from four week old plantlets, were ground in a mortar and pestle with liquid N2 and extracted with a buffer composed of 100 mM Pyruvate, 200 mM KH2PO4, 20 mM MgCl2, 2 mM thiamine pyrophosphate and […]. Plant extracts were then spun through a 10 mL Zeba™ TM desalt spin column (Pierce #89893) as per the manufacturer's recommendation. The inhibition assay was performed as described by Singh et al. (1988) Anal. Biochem. 171:173-179. Assays were conducted in a 96-well format. Fifty μl of inhibitor was added to each well containing 50 μl of soluble protein extract to give final concentrations of 0.78, 1.56, 3.125, 6.25, 12.5, 25, 50 and 100 μM imazamox or 0.78, 1.56, 3.125, 6.25, 12.5, 25, 50 and 100 μM imazapyr. Zero herbicide controls were also included for each line. Reactions were processed as outlined by Singh et al. (1988) Anal. Biochem. 171:173-179. Absorbance was measured at 530 nm. AHAS activity, expressed as the mean of the absorbance values for each treatment, was presented as a percentage of the mean of the zero-herbicide controls."}, "[2]": {"test_system": "AHAS enzyme of A122T homozygous (GM40)", "assay": "AHAS enzyme activity assay, Set 2", "type": "biochemical, sunflower", "conditions": "Set 2 (FIG. 14)", "experimental": "as §1, §2"}, "[3]": {"test_system": "AHAS enzyme of A122T heterozygous hybrid (cmsBTK47 × R731)", "assay": "AHAS enzyme activity assay, Set 2", "type": "biochemical, sunflower", "conditions": "Set 2 (FIG. 14)", "experimental": "as §1, §2"}, "[4]": {"test_system": "sunflower hybrid H1 (L1*L2), 205/205", "assay": "field trial, imazapyr at V8 or R1 stage (Example 4)", "conditions": "H1 205/205"}, "[5]": {"test_system": "F2 population from the cross GM40 (A122T)/HA425 (A205V)", "assay": "imazapyr challenge of segregating population (Example 1)", "type": "in vivo, sunflower", "conditions": "320 g a.i. ha-1; eighty F2 plants", "experimental": "To determine the phenotypic interactions of the resistance gene A122T and the Imr1 gene (A205V) already described in IMI-R sunflowers (HA425), F1, F2 and BC1F1 populations from the cross GM40 (A122T)/HA425 (A205V) were evaluated at two herbicide applications rates (80 and 320 g. a. i. Ha^−1 of imazapyr). […] When F2 and BC1F1 populations were scored at the higher herbicide rate (320 g. a. i. Ha-1), which discriminates both parents, segregation for susceptibility was observed. Only two phenotypic classes could be detected, a resistant class with plants without any injury or slight symptoms and a susceptible phenotype that was killed like the control line HA425.\nThe AHASL1 gene in sunflower presents a simple sequence repeat (SSR) polymorphism which discriminates lines carrying the Imr1 allele from any other sunflower genotype (Kolkman et al. (2004) Theor. Appl. Genet. 109: 1147-1159). […] This length variant polymorphism detected in GM40 and HA425 was exploited to investigate the segregation in the F2 and BC1F1 populations derived from crossing both lines. […] The cosegregation of herbicide resistance phenotypes and AHASL1 haplotypes was further assessed on 50 BC1F1 progeny segregating for resistance. […]"}, "[6]": {"test_system": "sunflower hybrid H6 (L1 * WT), 205/wild type", "assay": "field trial, imazapyr at V8 or R1 stage (Example 4)", "conditions": "H6 205/wild type"}, "[7]": {"test_system": "sunflower line HA445 (high oleic)", "assay": "tolerance to imidazolinones, greenhouse (Example 8)"}, "[8]": {"test_system": "sunflower hybrid H3 (L3*L2), 122/205", "assay": "field trial, imazapyr at V8 or R1 stage (Example 4)", "conditions": "H3 122/205"}, "[9]": {"test_system": "sunflower line B770 (conventional)", "assay": "tolerance to imidazolinones, greenhouse (Example 8)"}, "[10]": {"test_system": "sunflower line GM40 (A122T)", "assay": "tolerance to imidazolinones, greenhouse (Example 8)", "conditions": "160 gr/ha at V4, fourteen days after treatment"}, "[11]": {"conditions": "160 g ai/ha applied at R1, 14 DAT"}, "[12]": {"conditions": "160 g ai/ha applied at R1, 21 DAT"}, "[13]": {"conditions": "160 g ai/ha applied at V8, 14 DAT"}, "[14]": {"conditions": "160 g ai/ha applied at V8, 21 DAT"}, "[15]": {"conditions": "160 gr/ha at V4, fourteen days after treatment"}}}
{"smiles": "COCc1cnc(C2=NC(C)(C(C)C)C(=O)N2)c(C(=O)O)c1", "note": "(stereo not shown) [imazamox]", "values": [{"measurement": "AHAS activity, % of untreated control", "setting": "[1]; 50 μM", "value": 30, "unit": "%"}, {"measurement": "AHAS activity, % of untreated control", "setting": "[1]; 100 μM", "value": 26, "unit": "%"}, {"measurement": "AHAS activity, % of untreated control", "setting": "[2]; 50 μM", "value": 63, "unit": "%"}, {"measurement": "AHAS activity, % of untreated control", "setting": "[2]; 100 μM", "value": 60, "unit": "%"}, {"measurement": "AHAS activity, % of untreated control", "setting": "[3]; 50 μM", "value": 30, "unit": "%"}, {"measurement": "AHAS activity, % of untreated control", "setting": "[3]; 100 μM", "value": 30, "unit": "%"}]}
{"smiles": "CC(C)C1(C)N=C(c2ncccc2C(=O)O)NC1=O", "note": "(stereo not shown) [imazapyr]", "values": [{"measurement": "Mean Phytotoxicity Index (0-50)", "setting": "[4]; [11]", "value": 35}, {"measurement": "Mean Phytotoxicity Index (0-50)", "setting": "[4]; [12]", "value": 37.7}, {"measurement": "Mean Phytotoxicity Index (0-50)", "setting": "[4]; [13]", "value": 6}, {"measurement": "Mean Phytotoxicity Index (0-50)", "setting": "[4]; [14]", "value": 3}, {"measurement": "plants killed by the herbicide (S)", "setting": "[5]", "value": 22, "unit": "plants"}, {"measurement": "plants with no symptoms or a slight injury (R)", "setting": "[5]", "value": 58, "unit": "plants"}, {"measurement": "Mean Phytotoxicity Index (0-50)", "setting": "[6]; [11]", "value": 40}, {"measurement": "Mean Phytotoxicity Index (0-50)", "setting": "[6]; [12]", "value": 48.3}, {"measurement": "Mean Phytotoxicity Index (0-50)", "setting": "[6]; [13]", "value": 5}, {"measurement": "Mean Phytotoxicity Index (0-50)", "setting": "[6]; [14]", "value": 5}, {"measurement": "outcome of the herbicide treatment", "setting": "[7]; 160 gr/ha at V4", "value": "killed"}, {"measurement": "Mean Phytotoxicity Index (0-9)", "setting": "[7]; [15]", "value": 8.8}, {"measurement": "Mean Phytotoxicity Index (0-50)", "setting": "[8]; [11]", "value": 4.3}, {"measurement": "Mean Phytotoxicity Index (0-50)", "setting": "[8]; [12]", "value": 0.7}, {"measurement": "Mean Phytotoxicity Index (0-50)", "setting": "[8]; [13]", "value": 3}, {"measurement": "Mean Phytotoxicity Index (0-50)", "setting": "[8]; [14]", "value": 0}, {"measurement": "outcome of the herbicide treatment", "setting": "[9]; 160 gr/ha at V4", "value": "killed"}, {"measurement": "Mean Phytotoxicity Index (0-9)", "setting": "[9]; [15]", "value": 8.7}, {"measurement": "Mean Phytotoxicity Index (0-9)", "setting": "[10]", "value": 0.2}]}
